{"source": "paper PMC3475186", "about": "(Cell, 2012)", "molecular_target": "hTPC2 (TPC2; TPCN2; hTPC2-EGFP) (Homo sapiens, UniProt Q8NHX9)", "sequence (Q8NHX9 whole entry)": "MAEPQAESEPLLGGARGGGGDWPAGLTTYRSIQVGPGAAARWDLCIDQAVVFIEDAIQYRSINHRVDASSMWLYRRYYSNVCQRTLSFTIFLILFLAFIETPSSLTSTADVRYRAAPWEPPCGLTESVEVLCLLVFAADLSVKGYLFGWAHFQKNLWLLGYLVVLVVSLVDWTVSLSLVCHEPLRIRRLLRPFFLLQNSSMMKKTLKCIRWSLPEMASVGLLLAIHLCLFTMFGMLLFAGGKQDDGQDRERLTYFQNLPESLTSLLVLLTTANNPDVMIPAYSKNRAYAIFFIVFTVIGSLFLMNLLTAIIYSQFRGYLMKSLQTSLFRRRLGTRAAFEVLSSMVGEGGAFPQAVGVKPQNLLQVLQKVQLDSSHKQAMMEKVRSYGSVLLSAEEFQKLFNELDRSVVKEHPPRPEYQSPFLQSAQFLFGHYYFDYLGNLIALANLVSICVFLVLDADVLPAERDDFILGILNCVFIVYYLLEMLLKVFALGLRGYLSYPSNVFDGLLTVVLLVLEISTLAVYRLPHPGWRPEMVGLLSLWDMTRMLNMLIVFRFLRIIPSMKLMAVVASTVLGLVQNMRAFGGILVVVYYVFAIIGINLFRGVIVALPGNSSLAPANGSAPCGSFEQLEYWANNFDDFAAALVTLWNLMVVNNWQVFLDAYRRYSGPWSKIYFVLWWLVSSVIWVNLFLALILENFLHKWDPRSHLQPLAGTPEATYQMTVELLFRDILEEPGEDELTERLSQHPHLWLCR", "assay": "whole-endolysosome patch clamp", "format": "cell-based"}
{"smiles": "CCCCCCCC(=O)OC[C@H](COP(=O)(O)O[C@@H]1[C@H](O)[C@H](OP(=O)(O)O)[C@@H](O)[C@H](OP(=O)(O)O)[C@H]1O)OC(=O)CCCCCCC", "note": "[diC8 PI(3,5)P2]", "values": [{"measurement": "EC50", "result": "390 ± 94", "unit": "nM"}]}
